{"source": "paper PMC10746543", "about": "“Design principles for cyclin K molecular glue degraders” (Nature Chemical Biology, 2023)", "key": {"CDK12–cyclin K and DDB1": {"molecular_target": "T1, CDK12–cyclin K and DDB1 (Homo sapiens, UniProt Q16531+Q9NYV4, K965R)", "T1 construct": "His6–CDK12 (a.a. 713–1,052); full-length or beta-propeller B domain deletion (ΔBPB: a.a. 396–705 deleted) constructs of His6–DDB1ΔBPB, StrepII–Avi–DDB1, or His6–Spy–DDB1; made in house; host or cells: Trichoplusia ni High Five insect cells (baculovirus)", "T1 sequence (Q9NYV4 713-1052 K965R)": "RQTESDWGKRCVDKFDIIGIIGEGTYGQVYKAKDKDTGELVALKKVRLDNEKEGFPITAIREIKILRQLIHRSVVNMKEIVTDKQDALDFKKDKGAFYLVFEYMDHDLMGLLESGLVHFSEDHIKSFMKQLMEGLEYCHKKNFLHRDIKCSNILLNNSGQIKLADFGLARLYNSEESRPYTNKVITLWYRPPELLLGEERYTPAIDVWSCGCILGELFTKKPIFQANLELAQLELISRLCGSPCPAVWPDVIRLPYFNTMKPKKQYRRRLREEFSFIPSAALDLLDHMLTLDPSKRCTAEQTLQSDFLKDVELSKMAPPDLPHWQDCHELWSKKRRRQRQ", "T1 sequence (O75909 1-267 partner)": "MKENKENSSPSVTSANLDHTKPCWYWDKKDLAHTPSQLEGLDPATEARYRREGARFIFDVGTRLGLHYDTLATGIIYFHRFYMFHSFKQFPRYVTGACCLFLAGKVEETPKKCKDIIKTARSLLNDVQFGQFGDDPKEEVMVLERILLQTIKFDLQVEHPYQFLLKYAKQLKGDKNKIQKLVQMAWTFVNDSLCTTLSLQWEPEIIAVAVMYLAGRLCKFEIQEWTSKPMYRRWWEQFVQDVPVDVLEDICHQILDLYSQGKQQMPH", "T1 sequence (Q16531 whole entry)": "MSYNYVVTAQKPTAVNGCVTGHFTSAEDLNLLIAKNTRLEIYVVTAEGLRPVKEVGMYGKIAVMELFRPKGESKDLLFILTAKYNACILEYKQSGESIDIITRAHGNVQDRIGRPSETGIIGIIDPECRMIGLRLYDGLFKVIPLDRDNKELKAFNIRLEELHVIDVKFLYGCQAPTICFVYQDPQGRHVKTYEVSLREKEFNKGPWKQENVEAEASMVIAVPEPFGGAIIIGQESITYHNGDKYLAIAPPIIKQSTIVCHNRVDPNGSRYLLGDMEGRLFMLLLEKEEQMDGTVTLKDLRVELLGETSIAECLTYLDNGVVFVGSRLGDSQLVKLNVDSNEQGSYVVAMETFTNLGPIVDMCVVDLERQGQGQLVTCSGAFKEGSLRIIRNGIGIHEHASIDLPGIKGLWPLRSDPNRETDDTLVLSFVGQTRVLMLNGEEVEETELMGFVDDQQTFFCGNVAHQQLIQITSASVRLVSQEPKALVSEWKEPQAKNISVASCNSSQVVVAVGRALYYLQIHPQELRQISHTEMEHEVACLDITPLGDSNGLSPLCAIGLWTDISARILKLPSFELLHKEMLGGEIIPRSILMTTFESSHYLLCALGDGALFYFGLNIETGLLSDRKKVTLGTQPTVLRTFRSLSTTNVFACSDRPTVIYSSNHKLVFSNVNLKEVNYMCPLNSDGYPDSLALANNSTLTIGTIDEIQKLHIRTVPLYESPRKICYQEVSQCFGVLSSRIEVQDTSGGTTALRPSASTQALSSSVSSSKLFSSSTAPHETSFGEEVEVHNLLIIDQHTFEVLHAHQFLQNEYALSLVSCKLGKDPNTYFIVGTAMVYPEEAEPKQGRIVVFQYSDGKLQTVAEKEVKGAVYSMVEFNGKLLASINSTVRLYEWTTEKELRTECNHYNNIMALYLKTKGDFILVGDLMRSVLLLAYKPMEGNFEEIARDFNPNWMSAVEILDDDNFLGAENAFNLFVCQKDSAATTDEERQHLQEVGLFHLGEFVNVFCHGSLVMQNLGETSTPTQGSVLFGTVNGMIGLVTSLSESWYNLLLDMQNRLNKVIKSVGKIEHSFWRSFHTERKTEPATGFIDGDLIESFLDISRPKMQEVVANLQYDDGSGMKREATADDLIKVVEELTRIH", "assay": "TR-FRET ternary complex formation assay (compound titration)", "assay_type": "binding", "details": "compound concentration 2001.6 nM", "method_in_brief": "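A time delay of 70 μs preceded acquisition, limiting background fluorescence; the ratio of emission at 520 versus 490 nm gave the TR-FRET value.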"}, "CDK12–cyclin K": {"molecular_target": "CDK12–cyclin K (Homo sapiens, UniProt Q9NYV4)", "sequence (Q9NYV4 713-1052)": "as the sequence (Q9NYV4 713-1052 K965R) above, with R253K counted along it", "sequence (O75909 1-267 partner limits assumed)": "as the sequence (O75909 1-267 partner) above", "assay": "Lanthascreen kinase binding assay, CDK12", "details": "duplicates", "procedure": "Lanthascreen experiments were performed using commercially available reagents (Thermo Fisher) and according to the manufacturer’s instructions."}, "CDK13": {"molecular_target": "T2, CDK13 (Homo sapiens, UniProt Q14004+Q16531)", "T2 construct": "endogenous in cells; host or cells: MDA-MB-231", "T2 sequence (Q14004 whole entry)": "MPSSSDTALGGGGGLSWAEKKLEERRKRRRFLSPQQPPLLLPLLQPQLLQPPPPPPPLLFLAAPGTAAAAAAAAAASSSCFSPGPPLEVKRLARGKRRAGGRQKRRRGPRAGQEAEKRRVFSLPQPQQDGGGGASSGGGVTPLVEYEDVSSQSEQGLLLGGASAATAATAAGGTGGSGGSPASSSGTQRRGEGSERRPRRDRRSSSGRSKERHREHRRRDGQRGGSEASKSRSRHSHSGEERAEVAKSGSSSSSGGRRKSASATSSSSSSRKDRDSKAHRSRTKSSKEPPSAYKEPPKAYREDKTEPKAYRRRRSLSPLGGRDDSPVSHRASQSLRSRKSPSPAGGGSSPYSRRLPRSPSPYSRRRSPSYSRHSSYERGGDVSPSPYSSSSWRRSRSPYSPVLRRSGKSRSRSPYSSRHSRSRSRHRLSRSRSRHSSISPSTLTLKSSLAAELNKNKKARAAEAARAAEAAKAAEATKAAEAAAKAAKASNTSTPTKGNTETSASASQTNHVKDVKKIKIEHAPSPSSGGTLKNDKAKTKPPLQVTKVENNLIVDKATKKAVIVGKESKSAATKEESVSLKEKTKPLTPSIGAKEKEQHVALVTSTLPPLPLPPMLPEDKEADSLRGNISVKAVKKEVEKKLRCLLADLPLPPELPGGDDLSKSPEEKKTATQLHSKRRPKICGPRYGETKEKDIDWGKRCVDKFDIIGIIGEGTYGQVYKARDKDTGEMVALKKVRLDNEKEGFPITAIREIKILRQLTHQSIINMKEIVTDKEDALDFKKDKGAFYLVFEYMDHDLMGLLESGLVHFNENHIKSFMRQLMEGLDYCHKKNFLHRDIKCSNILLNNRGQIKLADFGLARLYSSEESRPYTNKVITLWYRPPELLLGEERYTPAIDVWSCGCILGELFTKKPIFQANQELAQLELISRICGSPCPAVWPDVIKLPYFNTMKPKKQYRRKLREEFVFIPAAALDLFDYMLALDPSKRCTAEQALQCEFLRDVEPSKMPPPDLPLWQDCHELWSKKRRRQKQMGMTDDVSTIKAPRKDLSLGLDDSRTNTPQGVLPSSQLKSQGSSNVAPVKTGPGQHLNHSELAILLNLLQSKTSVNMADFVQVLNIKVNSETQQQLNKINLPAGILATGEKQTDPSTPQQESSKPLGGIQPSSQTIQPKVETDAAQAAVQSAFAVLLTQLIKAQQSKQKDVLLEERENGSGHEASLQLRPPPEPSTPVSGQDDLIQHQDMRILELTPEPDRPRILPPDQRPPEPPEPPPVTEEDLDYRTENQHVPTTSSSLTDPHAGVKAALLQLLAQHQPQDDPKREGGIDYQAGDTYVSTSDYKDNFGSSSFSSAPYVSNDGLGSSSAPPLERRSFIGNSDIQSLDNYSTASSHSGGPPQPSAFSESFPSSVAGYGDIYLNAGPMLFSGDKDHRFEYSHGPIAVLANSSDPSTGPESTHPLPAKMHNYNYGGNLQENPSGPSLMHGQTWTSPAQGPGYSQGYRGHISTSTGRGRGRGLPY", "T2 sequence (O75909 whole entry partner)": "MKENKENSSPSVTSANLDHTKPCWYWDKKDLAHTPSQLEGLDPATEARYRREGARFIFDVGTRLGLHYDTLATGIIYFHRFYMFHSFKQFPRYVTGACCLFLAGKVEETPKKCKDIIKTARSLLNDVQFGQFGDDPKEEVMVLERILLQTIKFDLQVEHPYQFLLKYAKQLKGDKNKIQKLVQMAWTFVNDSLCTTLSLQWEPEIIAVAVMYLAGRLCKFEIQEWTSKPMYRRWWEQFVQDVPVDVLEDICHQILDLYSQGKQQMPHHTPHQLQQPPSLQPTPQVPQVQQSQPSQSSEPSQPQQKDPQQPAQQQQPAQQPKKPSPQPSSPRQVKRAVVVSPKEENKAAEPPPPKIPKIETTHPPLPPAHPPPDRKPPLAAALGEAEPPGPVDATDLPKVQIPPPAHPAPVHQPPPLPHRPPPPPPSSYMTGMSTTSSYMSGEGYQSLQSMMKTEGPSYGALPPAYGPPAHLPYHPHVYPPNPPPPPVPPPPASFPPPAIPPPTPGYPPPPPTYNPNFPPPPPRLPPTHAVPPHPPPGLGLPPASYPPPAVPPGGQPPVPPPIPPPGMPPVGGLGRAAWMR", "T2 sequence (Q16531 2-1140 limits assumed)": "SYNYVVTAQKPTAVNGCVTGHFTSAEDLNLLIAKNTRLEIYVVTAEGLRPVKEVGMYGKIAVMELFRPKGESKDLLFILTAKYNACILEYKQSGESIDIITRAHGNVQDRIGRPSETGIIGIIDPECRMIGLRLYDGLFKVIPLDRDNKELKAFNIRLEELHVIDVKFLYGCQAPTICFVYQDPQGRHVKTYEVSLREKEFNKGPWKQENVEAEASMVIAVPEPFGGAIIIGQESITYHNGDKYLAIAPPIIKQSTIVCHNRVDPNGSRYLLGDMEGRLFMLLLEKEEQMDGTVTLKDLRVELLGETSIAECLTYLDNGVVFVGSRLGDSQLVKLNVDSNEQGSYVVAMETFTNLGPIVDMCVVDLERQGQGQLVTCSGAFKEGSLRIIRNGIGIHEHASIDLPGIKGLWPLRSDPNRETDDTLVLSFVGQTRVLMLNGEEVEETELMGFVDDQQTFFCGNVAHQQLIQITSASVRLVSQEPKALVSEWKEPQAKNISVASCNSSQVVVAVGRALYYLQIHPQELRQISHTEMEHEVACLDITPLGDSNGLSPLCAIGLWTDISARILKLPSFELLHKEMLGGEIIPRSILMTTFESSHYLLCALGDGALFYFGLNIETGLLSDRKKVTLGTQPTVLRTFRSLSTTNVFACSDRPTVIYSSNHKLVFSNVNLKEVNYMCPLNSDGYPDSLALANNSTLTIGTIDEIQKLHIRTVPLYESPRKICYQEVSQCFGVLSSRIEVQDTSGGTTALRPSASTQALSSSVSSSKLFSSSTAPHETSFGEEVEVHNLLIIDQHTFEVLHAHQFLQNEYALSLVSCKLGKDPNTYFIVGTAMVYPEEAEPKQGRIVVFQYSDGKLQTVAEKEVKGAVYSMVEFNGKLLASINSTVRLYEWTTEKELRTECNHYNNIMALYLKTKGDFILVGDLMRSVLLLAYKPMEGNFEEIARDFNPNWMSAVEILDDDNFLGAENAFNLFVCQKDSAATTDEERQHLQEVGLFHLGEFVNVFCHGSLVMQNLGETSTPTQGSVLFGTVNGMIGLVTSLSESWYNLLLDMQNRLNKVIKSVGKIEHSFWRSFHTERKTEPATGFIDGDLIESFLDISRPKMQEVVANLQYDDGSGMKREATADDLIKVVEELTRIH", "assay": "Label-free quantitative mass spectrometry in MDA-MB-231 cells, CDK13", "assay_type": "cell-based", "method_in_brief": "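MDA-MB-231 cells treated 5 h with 1 µM cyclin K degrader or DMSO. Lysates digested with LysC and trypsin, then analysed by label-free diaPASEF LC-MS on a TimsTOF Pro2 with directDIA search and MS1 precursor quantification. Protein abundances scaled and analysed with limma.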"}}, "note": "“And” between values parts separate entries of the source, which are not always exact repeats. Equal values may be shown once.", "data": [{"smiles": "CCC(CO)Nc1nc(NCc2ccc(-c3ccccn3)cc2)c2ncn(C(C)C)c2n1", "note": "(stereo not shown) [CR8, reference compound]", "values": [{"measurement": "TR-FRET signal, individual replicate", "setting": "CDK12–cyclin K and DDB1", "value": "4.322 and 4.194 and 4.162 and 4.144 and 4.309 and 4.034 and 4.299"}, {"measurement": "TR-FRET signal at compound concentration 2001.6 nM", "setting": "CDK12–cyclin K and DDB1; raw replicate titration data", "value": "4.322 and 4.194 and 4.162 and 4.144 and 4.309 and 4.034 and 4.299 and 4.197 and 3.982 and 3.892 and 3.93 and 4.094 and 4.059 and 4.292 and 4.196 and 4.177 and 4.087"}, {"measurement": "TR-FRET signal at compound concentration 2001.6 nM", "setting": "CDK12–cyclin K and DDB1; raw titration data", "value": "4.322 and 4.194 and 4.162 and 4.144 and 4.309 and 4.034 and 4.299 and 4.197 and 3.982 and 3.892 and 3.93 and 4.094 and 4.059 and 4.292 and 4.196 and 4.177 and 4.087"}, {"measurement": "TR-FRET signal at compound concentration", "setting": "CDK12–cyclin K and DDB1; replicate titrations", "value": "4.322 and 4.194 and 4.162 and 4.144 and 4.309 and 4.034 and 4.299"}, {"measurement": "Lanthascreen raw signal, sheet CDK12", "setting": "CDK12–cyclin K; compound 0.038147 nM, series r37", "value": "0.01304 and 0.01325"}, {"measurement": "Lanthascreen raw signal, sheet CDK12", "setting": "CDK12–cyclin K; compound 0.038147 nM, series r49", "value": "0.007695 and 0.007446"}, {"measurement": "Lanthascreen raw signal, sheet CDK12", "setting": "CDK12–cyclin K; compound 0.152588 nM, series r37", "value": "0.01428 and 0.01359"}, {"measurement": "Lanthascreen raw signal, sheet CDK12", "setting": "CDK12–cyclin K; compound 0.152588 nM, series r49", "value": "0.009378 and 0.01005"}, {"measurement": "Lanthascreen raw signal, sheet CDK12", "setting": "CDK12–cyclin K; compound 0.610352 nM, series r37", "value": "0.015 and 0.0141"}, {"measurement": "Lanthascreen raw signal, sheet CDK12", "setting": "CDK12–cyclin K; compound 0.610352 nM, series r49", "value": "0.009165 and 0.0112"}, {"measurement": "Lanthascreen raw signal, sheet CDK12", "setting": "CDK12–cyclin K; compound 0.76 nM, series r25", "value": "0.01077 and 0.009668"}, {"measurement": "Lanthascreen raw signal, sheet CDK12", "setting": "CDK12–cyclin K; compound 1.02544 nM, series r1", "value": "0.009016 and 0.007993"}, {"measurement": "Lanthascreen raw signal, sheet CDK12", "setting": "CDK12–cyclin K; compound 3.15521 nM, series r1", "value": "0.009443 and 0.008694"}, {"measurement": "Lanthascreen raw signal, sheet CDK12", "setting": "CDK12–cyclin K; compound 4.57247 nM, series r25", "value": "0.009656 and 0.009902"}, {"measurement": "Lanthascreen raw signal, sheet CDK12", "setting": "CDK12–cyclin K; compound 9.46563 nM, series r1", "value": "0.008963 and 0.008112"}, {"measurement": "Lanthascreen raw signal, sheet CDK12", "setting": "CDK12–cyclin K; compound 9.76563 nM, series r37", "value": "0.01368 and 0.01299"}, {"measurement": "Lanthascreen raw signal, sheet CDK12", "setting": "CDK12–cyclin K; compound 9.76563 nM, series r49", "value": "0.009408 and 0.009212"}, {"measurement": "Lanthascreen raw signal, sheet CDK12", "setting": "CDK12–cyclin K; compound 13.7174 nM, series r25", "value": "0.01017 and 0.01059"}, {"measurement": "Lanthascreen raw signal, sheet CDK12", "setting": "CDK12–cyclin K; compound 31.5521 nM, series r1", "value": "0.006752 and 0.007539"}, {"measurement": "Lanthascreen raw signal, sheet CDK12", "setting": "CDK12–cyclin K; compound 39.0625 nM, series r37", "value": "0.01193 and 0.01223"}, {"measurement": "Lanthascreen raw signal, sheet CDK12", "setting": "CDK12–cyclin K; compound 39.0625 nM, series r49", "value": "0.009305 and 0.008784"}, {"measurement": "Lanthascreen raw signal, sheet CDK12", "setting": "CDK12–cyclin K; compound 41.1523 nM, series r25", "value": "0.009709 and 0.009531"}, {"measurement": "Lanthascreen raw signal, sheet CDK12", "setting": "CDK12–cyclin K; compound 99.3891 nM, series r1", "value": "0.006201 and 0.006527"}, {"measurement": "Lanthascreen raw signal, sheet CDK12", "setting": "CDK12–cyclin K; compound 123.457 nM, series r25", "value": "0.008131 and 0.007441"}, {"measurement": "Lanthascreen raw signal, sheet CDK12", "setting": "CDK12–cyclin K; compound 156.25 nM, series r37", "value": "0.00959 and 0.00993"}, {"measurement": "Lanthascreen raw signal, sheet CDK12", "setting": "CDK12–cyclin K; compound 156.25 nM, series r49", "value": "0.007819 and 0.007288"}, {"measurement": "Lanthascreen raw signal, sheet CDK12", "setting": "CDK12–cyclin K; compound 315.521 nM, series r1", "value": "0.007121 and 0.006383"}, {"measurement": "Lanthascreen raw signal, sheet CDK12", "setting": "CDK12–cyclin K; compound 370.37 nM, series r25", "value": "0.007201 and 0.007104"}, {"measurement": "Lanthascreen raw signal, sheet CDK12", "setting": "CDK12–cyclin K; compound 625 nM, series r37", "value": "0.007458 and 0.007383"}, {"measurement": "Lanthascreen raw signal, sheet CDK12", "setting": "CDK12–cyclin K; compound 625 nM, series r49", "value": "0.006302 and 0.006427"}, {"measurement": "Lanthascreen raw signal, sheet CDK12", "setting": "CDK12–cyclin K; compound 2500 nM, series r37", "value": "0.006338 and 0.006017"}, {"measurement": "Lanthascreen raw signal, sheet CDK12", "setting": "CDK12–cyclin K; compound 2500 nM, series r49", "value": "0.006233 and 0.005662"}, {"measurement": "Lanthascreen raw signal, sheet CDK12", "setting": "CDK12–cyclin K; compound 3155.21 nM, series r1", "value": "0.005736 and 0.005607"}, {"measurement": "Lanthascreen raw signal, sheet CDK12", "setting": "CDK12–cyclin K; compound 3333.33 nM, series r25", "value": "0.00631 and 0.006815"}, {"measurement": "Lanthascreen raw signal, sheet CDK12", "setting": "CDK12–cyclin K; compound 10000 nM, series r25", "value": "0.004829 and 0.005941"}, {"measurement": "Lanthascreen raw signal, sheet CDK12", "setting": "CDK12–cyclin K; compound 10000 nM, series r37", "value": "0.006588 and 0.005825"}, {"measurement": "Lanthascreen raw signal, sheet CDK12", "setting": "CDK12–cyclin K; compound 10000 nM, series r49", "value": "0.006042 and 0.005923"}, {"measurement": "Lanthascreen raw signal, sheet CDK12", "setting": "CDK12–cyclin K; compound 10002 nM, series r1", "value": "0.006385 and 0.006398"}, {"measurement": "CDK13 peptide count", "setting": "CDK13; label-free quantitative MS, replicate values", "value": "225.708 and 137.684"}, {"measurement": "CDK13 peptide count (DMSO-normalised)", "setting": "CDK13; normalised to DMSO = 1, replicate values", "value": "0.3358 and 0.2116"}]}]}
